Reference: patent publication US11072619B2, “Pyrazole[1,5-a] pyrimidine derivatives as kinase JAK inhibitors” (CELON PHARMA S.A., priority 2017, dated 2021)

Assays:
TF-1 cells [1] = experiment: TF-1 cells viability in vitro in the presence of IL-4 (JAK1/JAK3 activation); type: cell-based; details: Homo sapiens, TF-1; 20 ng/mL IL-4, 72 hours, ATPlite; read-out: JAK1,3 IL4 (EC50, inhibition of viability of TF-1 cells)
Experimental: (§1) Assay for TF-1 Cells Viability In Vitro
(§2) The effects of the activity of the compounds of the invention were tested in vitro using cells viability assay described below.
(§3) Tested compounds were dissolved in 100% DMSO, and obtained stock solutions were serially diluted in OptiMEM medium (Reduced Serum Medium-Thermo Fisher Scientific). TF-1 cells (DSMZ no.: ACC 334) in culture medium (80% RPMI 1640+20% FBS) ad in the presence of 5 ng/mL IL-3 or 20 ng/mL IL-4 were deposited on 96-well plates in the volume of 90 μl per well, 10 thousands of cells per well. To a well of the 96-well plate 10 μL of the prepared 10× stock solutions of the compounds. Cells on 96-well plates were incubated with the compounds for 72 hours at 37° C., 5% CO2. Subsequently, viability of the cells was measured using ATPlite kit (Perkin Elmer). For this purpose, 50 μL of lysis buffer (mammalian cell lysis solution) were added to a well of the 96-well plate and the plate was incubated for 10 minutes at 25° C. in a plate thermo-shaker with orbital stirring at 600 rpm. Then to a well of the 96-well plate 50 μL of substrate (substrate solution) were added and incubated for 15 minutes at in dark, in a plate thermo-shaker with orbital stirring at 600 rpm. After incubation time, luminescence intensity in a well was measured using Victor×Light luminometer (Perkin Elmer, Inc.).
(§4) On the basis of luminescence intensity measurements in well containing tested compounds at various concentrations and in control wells EC50 values were determined. These values were determined with Graph Pad software v. 5.03, by fitting points of the curve using non-linear regression method. Each compound was tested in at least 6 repetitions (6 wells) on two 96-well plates, using at least 3 wells of each control.

Recombinant kinase JAK1 = Recombinant kinase JAK1 (Homo sapiens (Human), UniProt P23458); experiment: In vitro JAK kinase inhibition assay (ADP-Glo), JAK1; type: biochemical; details: 30 μM ATP, peptide IRS-1, averaged
Sequence of Recombinant kinase JAK1 (P23458 whole entry): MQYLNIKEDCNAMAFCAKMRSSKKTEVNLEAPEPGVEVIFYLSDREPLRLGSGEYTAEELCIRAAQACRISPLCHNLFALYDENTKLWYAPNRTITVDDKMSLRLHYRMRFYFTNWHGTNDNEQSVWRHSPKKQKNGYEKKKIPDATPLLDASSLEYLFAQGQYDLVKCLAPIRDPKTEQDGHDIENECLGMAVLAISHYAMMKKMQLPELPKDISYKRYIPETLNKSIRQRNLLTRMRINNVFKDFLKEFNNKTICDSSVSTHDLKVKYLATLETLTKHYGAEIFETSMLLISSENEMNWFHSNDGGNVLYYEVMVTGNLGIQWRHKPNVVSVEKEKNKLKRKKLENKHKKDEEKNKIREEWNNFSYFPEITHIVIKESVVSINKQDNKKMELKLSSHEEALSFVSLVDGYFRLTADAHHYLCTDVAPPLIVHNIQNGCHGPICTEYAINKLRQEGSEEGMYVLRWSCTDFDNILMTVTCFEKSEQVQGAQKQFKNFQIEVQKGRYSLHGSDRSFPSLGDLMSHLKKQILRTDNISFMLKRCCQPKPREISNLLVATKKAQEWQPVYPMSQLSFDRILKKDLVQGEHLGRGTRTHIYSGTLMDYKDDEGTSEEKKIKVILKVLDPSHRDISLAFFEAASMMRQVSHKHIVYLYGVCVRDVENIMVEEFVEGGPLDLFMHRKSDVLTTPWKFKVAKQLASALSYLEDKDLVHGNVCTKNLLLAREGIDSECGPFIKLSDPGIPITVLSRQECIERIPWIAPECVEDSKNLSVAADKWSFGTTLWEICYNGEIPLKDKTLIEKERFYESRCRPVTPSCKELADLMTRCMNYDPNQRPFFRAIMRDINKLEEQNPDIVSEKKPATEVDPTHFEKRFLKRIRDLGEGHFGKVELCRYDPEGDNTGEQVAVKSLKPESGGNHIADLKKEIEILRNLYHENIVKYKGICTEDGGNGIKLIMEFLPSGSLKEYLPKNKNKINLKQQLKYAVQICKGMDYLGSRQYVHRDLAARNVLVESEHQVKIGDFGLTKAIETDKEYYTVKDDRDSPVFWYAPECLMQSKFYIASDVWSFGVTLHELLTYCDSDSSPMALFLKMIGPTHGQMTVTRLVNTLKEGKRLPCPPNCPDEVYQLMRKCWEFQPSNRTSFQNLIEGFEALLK
Experimental: (§5) In Vitro JAK Kinase Inhibition Assay
(§6) The effects of the compounds of the invention were analysed in vitro using kinase JAK inhibition assay described below.
(§7) Tested compounds were dissolved in 100% DMSO, and obtained stock solutions were serially diluted in the reaction buffer (50 mM Tris pH 7.5, 10 mM MgCl2, 0.25 mM EGTA, 0.1 mM Na3VO4, 0.01% Triton X-100, 2.5 mM DTT). Recombinant kinases JAK1 (ProQinase), JAK2, or JAK3 (Carna Biosciences) were diluted in the dilution buffer (50 mM Tris-HCl pH 7.5, 150 mM NaCl, 10% glycerol, 0.05% Triton X-100, 1 mM DTT) to the final concentration 3 ng/μL (JAK1), 0.1 ng/μL (JAK2), or 0.2 ng/μL (JAK3). 5 μL of obtained solution of the compounds and 5 μL of the solution of respective kinases were added to the well of a 96-well plate. To initiate interaction between tested compounds and an enzyme, the plate was incubated for 10 minutes at 25° C. in a Plate-Thermo-Shaker with orbital stirring at 400 rpm. Wells of a negative control contained all reagents as mentioned above with the exception of tested compounds and kinase, and wells of a positive controls contained all reagents as mentioned above with the exception of tested compounds. Enzymatic reaction was initiated by the addition of 15 μL of the following solution: 5× concentrated reaction buffer (50 mM Tris pH 7.5, 10 mM MgCl2, 0.25 mM EGTA, 0.1 mM Na3VO4, 0.01% Triton X-100, 2.5 mM DTT), water, 30 μM ATP and for particular kinases: JAK1—60 μM peptide IRS-1 (Enzo), JAK2 or JAK3—10 μM peptide IGF-1Rtide (Lipopharm). Then the plate was incubated for 1 hour at 25° C. in a Plate-Thermo-Shaker, with orbital stirring at 400 rpm. Detection of ADP formed in the enzymatic reaction was then performed using ADP-Glo Kinase Assay kit (Promega). For this purpose, to the well of the 96-well plate 25 μL of ADP-Glo Reagent were added, and the plate was incubated for 40 minutes at 25° C. in a Plate-Thermo-Shaker with orbital stirring at 400 rpm. Then to the well of the 96-well plate 50 μL of Kinase Detection Reagent were added and the plate was incubated for 30 minutes at 25° C. in a Plate-Thermo-Shaker with orbital stirring at 400 rpm. After incubation, luminescence intensity was measured using Victor×Light luminometer (Perkin Elmer, Inc.).
as §4, with “luminescence measurement” for “luminescence intensity measurements”, “in wells” for “in well”, “control wells, IC50” for “control wells EC50”
(§8) Averaged results of kinases JAK inhibition activity for selected compounds of the present invention are presented below in Table 1.

Recombinant kinase JAK3 = Recombinant kinase JAK3 (Homo sapiens (Human), UniProt P52333); experiment: In vitro JAK kinase inhibition assay (ADP-Glo), JAK3; type: biochemical; details: 30 μM ATP, peptide IGF-1Rtide, averaged
Sequence of Recombinant kinase JAK3 (P52333 whole entry): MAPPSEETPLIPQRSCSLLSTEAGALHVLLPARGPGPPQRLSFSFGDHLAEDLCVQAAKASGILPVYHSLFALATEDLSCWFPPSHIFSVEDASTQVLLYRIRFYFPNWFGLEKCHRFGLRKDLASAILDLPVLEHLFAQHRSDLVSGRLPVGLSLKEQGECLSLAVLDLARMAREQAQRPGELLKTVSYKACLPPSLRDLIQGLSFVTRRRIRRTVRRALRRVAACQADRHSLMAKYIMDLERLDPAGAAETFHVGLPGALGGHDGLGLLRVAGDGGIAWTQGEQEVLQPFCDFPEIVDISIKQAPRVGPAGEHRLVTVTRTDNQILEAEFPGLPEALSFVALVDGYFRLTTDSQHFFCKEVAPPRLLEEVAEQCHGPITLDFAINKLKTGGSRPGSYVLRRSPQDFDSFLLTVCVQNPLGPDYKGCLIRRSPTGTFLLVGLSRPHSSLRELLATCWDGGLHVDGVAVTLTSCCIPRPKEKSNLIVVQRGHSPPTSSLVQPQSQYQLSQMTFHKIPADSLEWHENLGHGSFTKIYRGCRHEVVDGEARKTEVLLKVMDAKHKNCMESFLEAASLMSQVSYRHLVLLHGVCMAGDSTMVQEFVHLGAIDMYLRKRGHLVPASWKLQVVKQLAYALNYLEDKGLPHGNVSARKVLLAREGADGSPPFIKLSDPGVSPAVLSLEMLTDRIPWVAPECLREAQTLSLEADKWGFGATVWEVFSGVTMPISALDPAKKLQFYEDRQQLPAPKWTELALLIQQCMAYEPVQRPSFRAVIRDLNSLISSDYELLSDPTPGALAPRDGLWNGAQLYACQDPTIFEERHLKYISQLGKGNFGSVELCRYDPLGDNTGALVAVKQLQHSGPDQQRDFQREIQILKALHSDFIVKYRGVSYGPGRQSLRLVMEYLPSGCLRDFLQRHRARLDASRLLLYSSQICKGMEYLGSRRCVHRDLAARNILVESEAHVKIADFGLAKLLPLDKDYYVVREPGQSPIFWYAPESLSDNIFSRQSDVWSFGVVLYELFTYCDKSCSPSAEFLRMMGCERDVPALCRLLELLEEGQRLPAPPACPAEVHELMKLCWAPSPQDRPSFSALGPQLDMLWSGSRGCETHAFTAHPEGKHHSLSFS
Experimental: as §5, §6, §7
as §4, with “luminescence measurement” for “luminescence intensity measurements”, “in wells” for “in well”, “control wells, IC50” for “control wells EC50”
as §8

[2] = test system: STAT6 protein phosphorylation in TF-1 cells; experiment: STAT6 phosphorylation inhibition in vitro in TF-1 cells with IL-4; type: cell-based; details: Homo sapiens, IL-4 20 ng/mL, 1 hour, Western blot densitometry
Experimental: Assay of STAT6 Phosphorylation Inhibition In Vitro
The activity of the compounds of the invention was tested using in vitro assay described below.
Tested compounds were dissolved in 100% DMSO, and obtained stock solutions were serially in OptiMEM medium (Reduced Serum Medium-Thermo Fisher Scientific). TF-1 cells (DSMZ no.: ACC 334) in culture medium (80% RPMI 1640+20% FBS) in the presence of IL-4 at 20 ng/mL were sieved on 12-well plates at 900 μl/well, 700 thousands of cells/well. To a well of the 12-well plate 100 μL of obtained 10× solution of the compounds were added. Cells on 12-well plates were incubated with tested compounds for 1 hour at 37° C., 5% CO2. Subsequently the cells were washed with PBS, lysed in RIPA buffer added with EDTA, proteases and phosphatases inhibitors, and incubated for 5 min on ice. Protein concentration was determined using Pierce BCA Protein Assay Kit (Thermo Fisher Scientific). Protein lysates were separated by electrophoresis (SDS-PAGE) on 8% polyacrylamide gels, then wet-transferred on nitrocellulose membrane and tested proteins were detected in accordance with the instructions of antibody manufacturer.
On the basis of the measurement of chemoluminescence intensity densitometric analysis was performed, results obtained for the cells treated with tested compounds at various concentrations were compared with those obtained for control cells, and IC50 values were determined.
These values were determined with Graph Pad software v. 5.03, by fitting points of the curve using non-linear regression method. Each compound was tested in at least 3 repetitions.

TF-1 cells [3] = experiment: TF-1 cells viability in vitro in the presence of IL-3 (JAK2 activation); type: cell-based; details: Homo sapiens, 5 ng/mL IL-3, 72 hours, ATPlite, read-out: JAK2 IL3 (EC50, inhibition of viability of TF-1 cells)
Experimental: as §1, §2
as §3, with “TF-1 cells (DSMZ no.: ACC 334) in culture medium (80% RPMI 1640+20% FBS) ad in the presence of 5 ng/mL IL-3 or 20 ng/mL IL-4 were deposited on 96-well plates in the volume of 90 μl per well, 10 thousands of cells per well.” left out
as §4, with “5.03, by fitting points of the curve using non-linear regression method.” left out

CC1(C)CN(c2ccc(C#N)nn2)CC[C@H]1Nc1c(C(N)=O)cnc2cc(-c3ccnc(N4CCOCC4)c3)nn12 [Example 13, (R)-7-((1-(6-Cyanopyridazin-3-yl)-3,3-dimethylpiperidin-4-yl)amino)-2-(2-morpholinopyridin-4-yl)pyrazolo[1,5-a]pyrimidine-6-carboxamide]
IC50 (TF-1 cells [1]): 202 nM | IC50 (Recombinant kinase JAK1): 0.51 nM | IC50 (Recombinant kinase JAK3): 0.2 nM | IC50 [2]: 215 nM | IC50 (TF-1 cells [3]): 1120 nM
